Source: patent US20210254006A1, “METHODS OF CULTURING AND/OR EXPANDING STEM CELLS AND/OR LINEAGE COMMITTED PROGENITOR CELLS USING LACTAM COMPOUNDS” (IDEAYA BIOSCIENCES, INC., priority 2018, published 2021)

Key:
[1] = tested on: human CD34+ hematopoietic stem cells (HSC); experiment: Hematopoietic stem cell expansion, CD34+ cells by flow cytometry after 12-day culture; format: cell-based
Method: The ability of compounds of formula (I) to facilitate hematopoietic stem cell expansion was determined by testing 1-methyl-7-(2-methyl-4-(6-(trifluoromethyl)pyrido[3,2-d]pyrimidin-2-yl)phenyl)-6,7-dihydro-1H-pyrazolo[3,4-f][1,4]oxazepin-8(5H)-one (compound 1) and 3-methyl-5-(2-methyl-4-(6-(trifluoromethyl)quinazolin-2-yl)phenyl)-6,7-dihydropyrazolo[1,5-a]pyrazin-4(5H)-one (compound 2) as follows.
Isolated human CD34^+ hematopoietic stem cells (HSC) were obtained from AllCells (Alameda, Calif., USA). 5,000 HSC per well were cultivated in 100 μL HSC expansion media StemSpan SFEM (StemCell Technologies; Vancouver, BC, Canada) containing 1× antibiotics (Life Technologies, Carlsbad, Calif., USA), 100 ng/mL thrombopoietin, 100 ng/mL IL-6, 100 ng/mL Flt3 ligand and 100 ng/mL stem cell factor (all R&D Systems, Minneapolis, Minn., USA) in a flat bottom 96 well tissue culture plate. 100 μL of 3-fold serial diluted compound 1 or 2 (final concentration range 0.169-10,000 nM) was added at 2× of the final concentration to HSC culture and HSC culture plates were incubated in a humidity-controlled incubator at […], 5% CO2. After 12 days, the absolute viable cell counts from each well were determined. HSC were then stained in staining buffer composed of Hank's balanced salt solution with 2% fetal bovine serum and 2 mM EDTA (all Life Technologies) at 4° C. for 1 hour with anti-CD90 APC, anti-CD34 PerCP, anti-CD38 FITC, CD45RA PE-Cy7 and anti-CD133 PE antibodies (all BD Biosciences, San Jose, Calif., USA). HSC were washed with staining buffer and HSC were analyzed by multicolor phenotype flow cytometry. The percentages of CD34^+ cells were determined as percentage of total population. Absolute counts of each population were calculated from the total number of viable cells multiplied by the percentage of each population. The EC50 value for the frequency of CD34+ cells, defined as the compound concentration with half maximal response on the dose response curve, was calculated using Prism 7 (GraphPad Software, La Jolla, Calif., USA).

[2] = biological target: T1, hAhR (Homo sapiens, UniProt P35869); experiment: AhR antagonist DRE-luciferase reporter transcriptional assay (TCDD-induced) in HEPG2 DRE-Luc cells; format: cell-based; conditions: relative IC50, HEPG2 DRE-Luc cells, 3 nM TCDD, 24 h incubation; read-out: IC50 hAhR (antagonist mode)
T1 construct: endogenous in cells; host or cells: HEPG2 cells with stably integrated Cignal XRE (DRE) luciferase reporter
T1 sequence (P35869 11-848): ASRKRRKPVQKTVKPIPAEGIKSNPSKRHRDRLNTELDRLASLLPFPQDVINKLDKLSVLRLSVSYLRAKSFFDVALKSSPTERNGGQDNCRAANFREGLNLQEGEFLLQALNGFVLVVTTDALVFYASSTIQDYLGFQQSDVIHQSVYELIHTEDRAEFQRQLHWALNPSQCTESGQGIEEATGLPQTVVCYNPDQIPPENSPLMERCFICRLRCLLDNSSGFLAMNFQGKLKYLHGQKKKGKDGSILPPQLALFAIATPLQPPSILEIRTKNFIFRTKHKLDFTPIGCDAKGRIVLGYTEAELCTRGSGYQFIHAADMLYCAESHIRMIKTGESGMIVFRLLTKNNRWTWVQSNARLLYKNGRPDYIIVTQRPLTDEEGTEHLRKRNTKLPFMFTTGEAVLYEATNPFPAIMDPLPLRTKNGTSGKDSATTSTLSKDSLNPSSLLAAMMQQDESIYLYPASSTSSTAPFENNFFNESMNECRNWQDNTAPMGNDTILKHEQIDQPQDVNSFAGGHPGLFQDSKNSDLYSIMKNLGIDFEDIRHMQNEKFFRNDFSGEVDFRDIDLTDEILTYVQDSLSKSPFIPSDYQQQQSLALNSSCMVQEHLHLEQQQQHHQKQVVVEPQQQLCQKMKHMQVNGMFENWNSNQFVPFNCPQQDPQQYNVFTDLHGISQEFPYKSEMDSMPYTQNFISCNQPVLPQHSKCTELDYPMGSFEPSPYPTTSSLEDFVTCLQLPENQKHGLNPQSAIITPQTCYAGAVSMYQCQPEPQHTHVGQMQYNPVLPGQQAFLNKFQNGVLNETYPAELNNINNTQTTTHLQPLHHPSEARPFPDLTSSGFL
Method: The ability of compounds of formula (I) to antagonize AhR was tested as follow. HEPG2 and HEPA1C1C7 cells were maintained in MEM and αMEM without nucleosides supplemented with 10% heat inactivated FBS respectively. Stably integrated DRE-luciferase cell lines were generated by transducing the both cell lines with Cignal XRE luciferase reporter (Qiagen) lentiviral particles according to the manufacturer protocol. For both cell lines, stably integrated reporter cell lines were selected for the presence of 2 μg/mL puromycin. Following selection of stably integrated cell line pools, clonal cell lines were isolated by limiting dilution in 96-well plates. […]
To determine AhR antagonist activity of compound of formula (I), the compounds were added in a semi-log dose response using a D300e Digital Dispenser (Tecan) followed normalization with vehicle (DMSO). […] Firefly luciferase activity was measured immediately following the addition of 50 μL Luciferase Assay Reagent (Promega). The percent maximal activity for each point was determined using the following equation: (RLUsample−RLUvehicle−TCDD)/(RLUvehicle+TCDD RLUvehicle−TCDD)*100. The relative IC50, defined as the compound concentration required to reduce the TCDD induced response between the top and bottom plateau of each individual dose response curve by half, for each compound was determined using Prism7 (GraphPad Software).

[3] = compound concentration 3,333 nM

Cc1cc(-c2ncc3nc(C(F)(F)F)ccc3n2)ccc1N1CCOc2cnn(C)c2C1=O [Example 001, 1-methyl-7-(2-methyl-4-(6-(trifluoromethyl)pyrido[3,2-d]pyrimidin-2-yl)phenyl)-6,7-dihydro-1H-pyrazolo[3,4-f][1,4]oxazepin-8(5H)-one]
CD34+ cell counts, fold expansion [1, 3]: 2.4 fold
frequency of CD34+ HSC, fold increase [1, 3]: 3.1 fold

Cc1cc(-c2ncc3cc(C(F)(F)F)ccc3n2)ccc1N1CCn2ncc(C)c2C1=O [Example 002, 3-methyl-5-(2-methyl-4-(6-(trifluoromethyl)quinazolin-2-yl)phenyl)-6,7-dihydropyrazolo[1,5-a]pyrazin-4(5H)-one]
frequency of CD34+ HSC, fold increase ([1]; compound concentration 1,111 nM): 3.6 fold
CD34+ cell counts, fold expansion ([1]; compound concentration 10,000 nM): 4.0 fold

Cc1cc(-c2ncc3cc(C(F)(F)F)ccc3n2)ccc1N1CCOc2cn[nH]c2C1=O [Example 033, 7-(2-methyl-4-(6-(trifluoromethyl)quinazolin-2-yl)phenyl)-6,7-dihydro-1H-pyrazolo[3,4-f][1,4]oxazepin-8(5H)-one]
IC50 [2]: < 200 nM

Cc1cc(-c2ncc3cc(C(F)(F)F)ccc3n2)ccc1N1CCOc2cnn(CCO)c2C1=O [Example 034, 1-(2-hydroxyethyl)-7-(2-methyl-4-(6-(trifluoromethyl)quinazolin-2-yl)phenyl)-6,7-dihydro-1H-pyrazolo[3,4-f][1,4]oxazepin-8(5H)-one]
IC50 [2]: 200 to 500 nM
